One block for each compound: values may come before it.
Assays:
[1] = bleomycin-induced fibrosis mouse model; cited from earlier work
[2] = cited from earlier work; for admission rate of the intensive care unit / incidence of acute respiratory distress syndrome (ARDS) / risk of mortality / use of invasive mechanical ventilation: COVID-19
[3] = in vivo; cited from earlier work
[4] = in combination with nintedanib; case report; cited from earlier work
[5] = tested on: house dust mite mouse model of asthma; details: formulated for being administered as aerosol; cited from earlier work
OVA-challenged mice = details: given as dry powder; cited from earlier work
[6] = tested on: mouse model of chronic exposure to AAH allergens; details: cited from earlier work
[7] = RA patients, including a subgroup with interstitial lung disease; cited from earlier work
JAK1 = JAK1 (Homo sapiens, UniProt P23458); assay: Biochemical potency on JAK1, TR-FRET (LANCE Ultra kinase assay); details: ATP corresponding to Km; cell-free; read-out: JAK1 inhibitory activity (pIC50) (converted)
In short: (§1)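 ULight-JAK-1 (Tyr1023) peptide phosphorylation at Km ATP, 1.5 h r.t.; substrate solution held peptide 30/50/20/10 nM and ATP 20/0.7/0.2/12 μM, enzyme solution 0.15/0.083/0.025/0.144 ng/μL (JAK1/JAK2/JAK3/TYK2). EDTA stop, Eu-PT66 antibody TR-FRET read at 665 nm; 11-point 5-fold dilutions from 20 μM; IC50 by variable-slope fit.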

JAK2 = JAK2 (Homo sapiens, UniProt O60674); assay: Biochemical potency on JAK2, TR-FRET (LANCE Ultra kinase assay); details: ATP corresponding to Km; cell-free; read-out: JAK2 inhibitory activity (pIC50) (converted)
In short: as §1

JAK3 = biological target: T1, JAK3 (Homo sapiens, UniProt P52333); assay: Biochemical potency on JAK3, TR-FRET (LANCE Ultra kinase assay); details: ATP corresponding to Km; cell-free; read-out: JAK3 inhibitory activity (pIC50) (converted)
T1 sequence (P52333 1-1124): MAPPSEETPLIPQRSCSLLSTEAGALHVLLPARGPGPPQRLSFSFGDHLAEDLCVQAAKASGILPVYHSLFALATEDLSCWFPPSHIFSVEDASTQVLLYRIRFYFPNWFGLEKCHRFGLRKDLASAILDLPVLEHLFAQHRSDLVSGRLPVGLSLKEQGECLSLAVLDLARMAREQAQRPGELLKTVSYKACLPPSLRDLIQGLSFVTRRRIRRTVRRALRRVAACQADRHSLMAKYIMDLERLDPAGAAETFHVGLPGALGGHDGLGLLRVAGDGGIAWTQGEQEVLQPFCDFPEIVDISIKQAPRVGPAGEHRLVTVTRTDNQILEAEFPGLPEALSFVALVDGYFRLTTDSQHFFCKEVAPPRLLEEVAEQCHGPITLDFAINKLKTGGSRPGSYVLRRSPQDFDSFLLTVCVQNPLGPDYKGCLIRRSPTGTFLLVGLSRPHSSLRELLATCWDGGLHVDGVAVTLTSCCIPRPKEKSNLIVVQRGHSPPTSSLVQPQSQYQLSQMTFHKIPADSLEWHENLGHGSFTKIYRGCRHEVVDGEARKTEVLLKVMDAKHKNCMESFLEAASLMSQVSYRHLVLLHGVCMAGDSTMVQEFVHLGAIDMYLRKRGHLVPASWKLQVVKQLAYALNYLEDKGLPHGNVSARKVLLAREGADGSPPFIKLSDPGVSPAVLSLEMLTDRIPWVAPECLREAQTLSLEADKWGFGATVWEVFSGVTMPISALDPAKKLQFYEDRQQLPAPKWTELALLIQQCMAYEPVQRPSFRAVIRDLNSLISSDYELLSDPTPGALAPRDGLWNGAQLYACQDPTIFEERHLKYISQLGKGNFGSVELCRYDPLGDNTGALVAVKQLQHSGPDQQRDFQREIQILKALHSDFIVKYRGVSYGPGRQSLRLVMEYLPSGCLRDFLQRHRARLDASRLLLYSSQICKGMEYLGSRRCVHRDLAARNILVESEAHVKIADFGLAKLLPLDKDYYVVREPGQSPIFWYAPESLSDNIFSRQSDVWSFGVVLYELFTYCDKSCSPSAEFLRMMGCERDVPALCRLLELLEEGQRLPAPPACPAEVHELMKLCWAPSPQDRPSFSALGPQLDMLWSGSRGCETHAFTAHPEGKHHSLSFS
In short: as §1

TYK2 = TYK2 (Homo sapiens, UniProt P29597); assay: Biochemical potency on Tyk2, TR-FRET (LANCE Ultra kinase assay); details: ATP corresponding to Km; cell-free; read-out: TYK2 inhibitory activity (pIC50) (converted)
In short: as §1

[8] = tested on: pSTAT6 in BEAS-2B human cell line; assay: Inhibition of IL-13 induced pSTAT6 in BEAS; type: cell-based; details: for IC50: Homo sapiens, BEAS-2B, 0.5 h, IL-13 trigger, 30 min, parent compound; for Fold difference parent vs predicted acid metabolite: ratio=IC50 predicted acid metabolite/IC50 ester
In short: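 BEAS-2B cells grown 48 h, pre-treated 30 min with compound, then stimulated 30 min with IL-13. Lysate pSTAT6 (Tyr641) measured by sandwich ELISA. Eleven 5-fold dilutions from 10 μM, in duplicate, fitted to IC50.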

Sequence of JAK1 (P23458 whole entry): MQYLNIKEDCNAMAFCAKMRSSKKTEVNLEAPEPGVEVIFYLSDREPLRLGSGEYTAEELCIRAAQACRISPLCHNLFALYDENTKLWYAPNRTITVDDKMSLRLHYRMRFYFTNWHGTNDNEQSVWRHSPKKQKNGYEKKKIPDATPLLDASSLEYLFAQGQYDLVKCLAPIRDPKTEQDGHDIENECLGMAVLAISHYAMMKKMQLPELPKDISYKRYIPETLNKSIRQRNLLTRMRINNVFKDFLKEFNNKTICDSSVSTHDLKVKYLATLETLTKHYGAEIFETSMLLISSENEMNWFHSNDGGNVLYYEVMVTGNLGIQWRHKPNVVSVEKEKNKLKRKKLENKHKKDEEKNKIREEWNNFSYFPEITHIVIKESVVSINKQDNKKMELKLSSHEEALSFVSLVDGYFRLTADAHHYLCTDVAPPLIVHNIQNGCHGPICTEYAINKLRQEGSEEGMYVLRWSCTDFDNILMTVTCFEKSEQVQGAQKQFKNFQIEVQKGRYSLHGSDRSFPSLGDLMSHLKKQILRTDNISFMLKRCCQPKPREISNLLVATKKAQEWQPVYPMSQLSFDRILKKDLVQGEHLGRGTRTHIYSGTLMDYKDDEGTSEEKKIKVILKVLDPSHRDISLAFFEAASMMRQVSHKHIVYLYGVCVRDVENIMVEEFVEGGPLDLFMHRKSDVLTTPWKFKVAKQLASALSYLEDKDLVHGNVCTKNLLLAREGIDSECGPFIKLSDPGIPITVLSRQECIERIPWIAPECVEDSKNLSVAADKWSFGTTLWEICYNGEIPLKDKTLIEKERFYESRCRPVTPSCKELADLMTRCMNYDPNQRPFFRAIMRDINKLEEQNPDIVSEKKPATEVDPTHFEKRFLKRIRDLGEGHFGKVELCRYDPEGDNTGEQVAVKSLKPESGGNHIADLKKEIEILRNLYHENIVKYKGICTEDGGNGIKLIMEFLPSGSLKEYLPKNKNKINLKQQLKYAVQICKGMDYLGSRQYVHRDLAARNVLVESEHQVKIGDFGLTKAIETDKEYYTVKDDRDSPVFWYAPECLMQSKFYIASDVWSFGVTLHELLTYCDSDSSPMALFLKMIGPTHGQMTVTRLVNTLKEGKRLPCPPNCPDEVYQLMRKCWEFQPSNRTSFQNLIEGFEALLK
Sequence of JAK2 (O60674 whole entry): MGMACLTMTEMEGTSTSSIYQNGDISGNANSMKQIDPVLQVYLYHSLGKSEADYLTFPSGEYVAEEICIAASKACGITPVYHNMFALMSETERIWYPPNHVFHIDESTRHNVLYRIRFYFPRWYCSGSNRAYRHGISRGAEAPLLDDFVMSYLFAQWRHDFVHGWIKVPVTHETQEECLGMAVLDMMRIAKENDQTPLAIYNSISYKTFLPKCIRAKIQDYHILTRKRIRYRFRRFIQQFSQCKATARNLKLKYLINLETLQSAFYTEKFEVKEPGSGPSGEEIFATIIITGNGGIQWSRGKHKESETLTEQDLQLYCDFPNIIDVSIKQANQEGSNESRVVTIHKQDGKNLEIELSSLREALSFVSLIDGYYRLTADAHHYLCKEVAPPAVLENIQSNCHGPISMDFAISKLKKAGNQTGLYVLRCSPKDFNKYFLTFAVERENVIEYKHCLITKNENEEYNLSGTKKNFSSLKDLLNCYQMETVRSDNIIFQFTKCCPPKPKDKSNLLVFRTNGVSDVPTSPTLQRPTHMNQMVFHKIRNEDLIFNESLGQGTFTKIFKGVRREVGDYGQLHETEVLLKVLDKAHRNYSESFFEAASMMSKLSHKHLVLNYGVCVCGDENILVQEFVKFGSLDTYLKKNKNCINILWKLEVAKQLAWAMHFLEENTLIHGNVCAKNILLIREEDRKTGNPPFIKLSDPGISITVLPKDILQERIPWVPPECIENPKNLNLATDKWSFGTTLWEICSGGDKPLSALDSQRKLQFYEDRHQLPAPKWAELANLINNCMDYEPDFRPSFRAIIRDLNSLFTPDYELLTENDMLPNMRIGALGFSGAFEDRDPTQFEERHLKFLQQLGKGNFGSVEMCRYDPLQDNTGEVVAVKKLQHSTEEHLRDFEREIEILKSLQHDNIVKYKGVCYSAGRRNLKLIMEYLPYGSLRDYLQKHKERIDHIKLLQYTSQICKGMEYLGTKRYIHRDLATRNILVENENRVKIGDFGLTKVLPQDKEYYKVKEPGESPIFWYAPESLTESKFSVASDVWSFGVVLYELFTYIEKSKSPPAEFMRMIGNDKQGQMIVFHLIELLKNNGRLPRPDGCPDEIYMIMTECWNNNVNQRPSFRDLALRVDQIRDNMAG
Sequence of TYK2 (P29597 whole entry): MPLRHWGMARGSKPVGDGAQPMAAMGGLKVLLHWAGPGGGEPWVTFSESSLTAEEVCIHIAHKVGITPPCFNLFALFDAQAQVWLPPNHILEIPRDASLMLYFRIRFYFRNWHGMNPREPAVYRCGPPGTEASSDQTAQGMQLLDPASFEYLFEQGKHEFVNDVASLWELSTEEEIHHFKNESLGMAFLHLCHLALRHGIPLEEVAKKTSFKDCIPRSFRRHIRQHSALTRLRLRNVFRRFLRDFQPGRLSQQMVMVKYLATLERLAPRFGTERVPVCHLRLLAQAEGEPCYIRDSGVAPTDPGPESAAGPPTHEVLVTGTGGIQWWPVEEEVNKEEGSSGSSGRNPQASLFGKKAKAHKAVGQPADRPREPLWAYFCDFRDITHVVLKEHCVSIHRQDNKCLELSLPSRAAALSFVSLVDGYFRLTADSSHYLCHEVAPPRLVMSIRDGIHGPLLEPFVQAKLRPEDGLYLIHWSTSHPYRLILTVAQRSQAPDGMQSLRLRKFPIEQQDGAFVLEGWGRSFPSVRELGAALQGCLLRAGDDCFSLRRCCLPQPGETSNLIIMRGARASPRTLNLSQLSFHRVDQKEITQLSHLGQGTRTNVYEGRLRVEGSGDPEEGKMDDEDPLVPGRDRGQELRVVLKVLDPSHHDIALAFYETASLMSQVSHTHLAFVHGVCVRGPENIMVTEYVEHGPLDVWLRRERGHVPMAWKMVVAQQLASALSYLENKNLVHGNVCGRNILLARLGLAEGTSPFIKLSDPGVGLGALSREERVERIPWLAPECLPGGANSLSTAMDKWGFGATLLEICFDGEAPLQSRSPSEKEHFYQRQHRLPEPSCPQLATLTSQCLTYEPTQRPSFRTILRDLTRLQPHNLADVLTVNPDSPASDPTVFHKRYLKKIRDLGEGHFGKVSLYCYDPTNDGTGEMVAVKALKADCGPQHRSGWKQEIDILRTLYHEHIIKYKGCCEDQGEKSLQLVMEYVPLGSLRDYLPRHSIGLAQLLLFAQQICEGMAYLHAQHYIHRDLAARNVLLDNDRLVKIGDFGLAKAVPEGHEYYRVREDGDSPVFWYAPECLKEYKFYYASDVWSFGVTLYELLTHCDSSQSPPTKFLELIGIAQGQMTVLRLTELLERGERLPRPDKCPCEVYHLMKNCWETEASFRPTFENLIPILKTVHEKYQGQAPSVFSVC

SMILES: N#CC[C@H](C1CCCC1)n1cc(-c2ncnc3[nH]ccc23)cn1 [Ruxolitinib, ruxolitinib]
fibrotic lesions in lung [1]: ameliorated the fibrotic lesions in lung
levels of fibrotic molecular markers [1]: reduced levels of fibrotic molecular markers
admission rate of the intensive care unit [2]: borderline impact
incidence of acute respiratory distress syndrome (ARDS) [2]: borderline impact
risk of mortality [2]: reduced risk of mortality
use of invasive mechanical ventilation [2]: reduced the use of invasive mechanical ventilation
clinical symptoms and chest computed tomography images ([2]; COVID-19 patients): improved the clinical symptoms and chest computed tomography images

SMILES: C[C@@H]1CCN(C(=O)CC#N)C[C@@H]1N(C)c1ncnc2[nH]ccc12 [tofacitinib]
preventive effect in experimental dermal and pulmonary fibrosis [3]: acted as a preventive agent
efficacy and safety in aggressive interstitial lung disease [4]: corroborated the efficacy and safety
eosinophils count [5]: reduced eosinophils count

SMILES: CN(CCC#N)C1CCN(C(=O)Cn2cc(NC(=O)c3cnn4cccnc34)c(-c3cc(Cl)ccc3OC(F)F)n2)CC1 [iJak-381]
BAL eosinophilia (OVA-challenged mice): reduced
CCL11 (OVA-challenged mice): reduced
Muc5AC (OVA-challenged mice): reduced
airway resistance (OVA-challenged mice): reduced
BAL eosinophilia [6]: reduced
CCL11 [6]: reduced
CXCL1 [6]: reduced
neutrophilia [6]: reduced

SMILES: CCS(=O)(=O)N1CC(CC#N)(n2cc(-c3ncnc4[nH]ccc34)cn2)C1 [Baricitinib, baricitinib]
biomarkers' levels of lung fibrosis and inflammation [7]: reduces the biomarkers' levels of lung fibrosis and inflammation
safety as immune modulator [7]: safe immune modulator
admission rate of the intensive care unit [2]: borderline impact
incidence of acute respiratory distress syndrome (ARDS) [2]: borderline impact
risk of mortality [2]: reduced risk of mortality
use of invasive mechanical ventilation [2]: reduced the use of invasive mechanical ventilation

Second part, led by results:

IC50 (JAK1): ≤ 5.01 nM
IC50 (JAK2): ≤ 5.01 nM
IC50 (JAK3): ≤ 5.01 nM
IC50 (TYK2): 5.01 to 50.1 nM
SMILES: CCOC(=O)C1CCN(CCNC(=O)c2nn(-c3cc4c(cc3OC)NCCO4)c3cc(-c4cnn5cccnc45)ncc23)CC1 [Example 9, ethyl 1-(2-(1-(6-methoxy-3,4-dihydro-2H-benzo[b][1,4]oxazin-7-yl)-6-(pyrazolo[1,5-a]pyrimidin-3-yl)-1H-pyrazolo[4,3-c]pyridine-3-carboxamido)ethyl)piperidine-4-carboxylate]
IC50 [8]: ≤ 5.01 nM
Fold difference parent vs predicted acid metabolite [8]: kkkk (ratio≥200)

IC50 (JAK1): ≤ 5.01 nM
IC50 (JAK2): ≤ 5.01 nM
IC50 (JAK3): ≤ 5.01 nM
IC50 (TYK2): 5.01 to 50.1 nM
SMILES: CCOC(=O)C1CN(CCNC(=O)c2nn(-c3cc4c(cc3OC)NCCO4)c3cc(-c4cnn5cccnc45)ncc23)C1 [Example 31, ethyl 1-(2-(1-(6-methoxy-3,4-dihydro-2H-benzo[b][1,4]oxazin-7-yl)-6-(pyrazolo[1,5-a]pyrimidin-3-yl)-1H-pyrazolo[4,3-c]pyridine-3-carboxamido)ethyl)azetidine-3-carboxylate]
IC50 [8]: 5.01 to 50.1 nM

IC50 (JAK1): ≤ 5.01 nM
IC50 (JAK2): ≤ 5.01 nM
IC50 (JAK3): ≤ 5.01 nM
IC50 (TYK2): 5.01 to 50.1 nM
SMILES: COc1cc2c(cc1-n1nc(C(=O)NCCN3CCC(C(=O)OC(C)C)CC3)c3cnc(-c4cnn5cccnc45)cc31)OCCN2 [Example 45, isopropyl 1-(2-(1-(6-methoxy-3,4-dihydro-2H-benzo[b][1,4]oxazin-7-yl)-6-(pyrazolo[1,5-a]pyrimidin-3-yl)-1H-pyrazolo[4,3-c]pyridine-3-carboxamido)ethyl)piperidine-4-carboxylate]
IC50 [8]: ≤ 5.01 nM
Fold difference parent vs predicted acid metabolite [8]: kkkk (ratio≥200)

IC50 (JAK1): ≤ 5.01 nM
IC50 (JAK2): ≤ 5.01 nM
IC50 (JAK3): ≤ 5.01 nM
IC50 (TYK2): 5.01 to 50.1 nM
SMILES: CCOC(=O)C1CCN(CCNC(=O)c2nn(-c3cc4c(cc3OC)NCCO4)c3cc(Nc4ncc[nH]c4=O)ncc23)CC1 [Example 58, ethyl 1-(2-(1-(6-methoxy-3,4-dihydro-2H-benzo[b][1,4]oxazin-7-yl)-6-((3-oxo-3,4-dihydropyrazin-2-yl)amino)-1H-pyrazolo[4,3-c]pyridine-3-carboxamido)ethyl)piperidine-4-carboxylate]
IC50 [8]: 5.01 to 50.1 nM
Fold difference parent vs predicted acid metabolite [8]: kkkk (ratio≥200)
